Data as given in ChEMBL document CHEMBL4028817, “Indole-TEMPO conjugates alleviate ischemia-reperfusion injury via attenuation of oxidative stress and preservation of mitochondrial function” (Bioorg Med Chem, 2017).
Calls of active or inactive are those of the source. The calls are words filed in the database; no cut-off is given here.

Legend:
Mus musculus [1] = assay: Toxicity in mouse assessed as tail bleeding time at 0.50 mmol/kg, po administered 90 mins prior to tail transection measured every 30 secs (reference value: 119.3 +/- 7.7 sec); format: organism-based; details: in vivo
Mus musculus [2] = assay: Anti-inflammatory activity in ICR mouse assessed as inhibition of xylene induced ear edema at 0.10 mmol/kg pretreated orally for 30 mins followed by xylene challenge measured after 2 hrs relative to control; format: functional; details: po
Mus musculus [3] = assay: Toxicity in mouse assessed as tail bleeding time at 0.50 mmol/kg, po administered 60 mins prior to tail transection measured every 30 secs (reference value: 120.4 +/- 7.9 sec); format: organism-based; details: in vivo
Mus musculus [4] = assay: Toxicity in mouse assessed as tail bleeding time at 0.50 mmol/kg, po administered 45 mins prior to tail transection measured every 30 secs (reference value: 119.8 +/- 8.4 sec); format: organism-based; details: in vivo
Mus musculus [5] = assay: Anti-inflammatory activity in xylene induced ICR mouse ear edema model assessed as edema weight at 0.10 mmol/kg, po pretreated 30 mins followed by xylene challenge measured after 2 hrs (reference value: 4.07 +/- 0.51 mg); format: functional
Mus musculus [6] = assay: Toxicity in mouse assessed as tail bleeding time at 0.50 mmol/kg, po administered 30 mins prior to tail transection measured every 30 secs (reference value: 120.5 +/- 7.9 sec); format: organism-based; details: in vivo
HUVEC = assay: Protection against simulated ischemia/reperfusion injury-induced cell death in HUVEC assessed as increase in cell viability at 30 ug/ml treated for 12 hrs under normoxic condition prior to simulated ischemia for 2 hrs followed by compound washout measured 3 hrs post reperfusion; format: functional, cell-based; details: Homo sapiens
Mus musculus [7] = assay: Anti-inflammatory activity in ICR mouse assessed as inhibition of xylene induced ear edema pretreated orally for 30 mins followed by xylene challenge measured after 2 hrs; format: functional
Rattus norvegicus [8] = assay: Protection against ischemia/reperfusion-induced Wistar rat intestinal injury model assessed as reduction in lipid peroxidation by measuring lipid peroxide levels at 30 mg/kg administered as bolus dose pretreated for 5 mins followed by 12 hrs reperfusion and subsequent compound addition at 10 mg/kg administered at 1 hr interval during reperfusion period measured at 1.5 to 12 hrs post reperfusion by spectrophotometric method; format: functional, organism-based
Rattus norvegicus [9] = assay: Protection against ischemia/reperfusion-induced Wistar rat intestinal injury model assessed as effect on TNFalpha levels at 30 mg/kg administered as bolus dose pretreated for 5 mins followed by 12 hrs reperfusion and subsequent compound addition at 10 mg/kg administered at 1 hr interval during reperfusion period by ELISA (reference value: 62.9 +/- 8.7 pg/ml); format: functional

| Structure (SMILES) | Time (Mus musculus [1]) | inhibition in vivo at 100 µmol/kg (Mus musculus [2]) | Time (Mus musculus [3]) | Time (Mus musculus [4]) | Activity (Mus musculus [5]) | Time (Mus musculus [6]) | Activity (HUVEC) | inhibition (Mus musculus [7]) | Activity (Rattus norvegicus [8]) | Activity (Rattus norvegicus [9]) |
| --- | --- | --- | --- | --- | --- | --- | --- | --- | --- | --- |
| CSCC[C@@H](NC(=O)[C@@H]1Cc2c([nH]c3ccccc23)CN1C(=O)[C@@H]1Cc2c([nH]c3ccccc23)CN1)C(=O)NCc1cn(C2CC(C)(C)N([O])C(C)(C)C2)nn1 | 117.9 s | 43.5% | 119.6 s | 118.4 s | 2.3 mg | 119.3 s | – | – | – | – |
| CC1(C)CC(n2cc(CNC(=O)[C@@H](CC(N)=O)NC(=O)[C@@H]3Cc4c([nH]c5ccccc45)CN3C(=O)[C@@H]3Cc4c([nH]c5ccccc45)CN3)nn2)CC(C)(C)N1[O] | 119.2 s | 56.3% | 119.5 s | 118.4 s | 1.78 mg | 119.7 s | Active | Dose-dependent effect | – | – |
| CC(C)[C@@H](NC(=O)[C@@H]1Cc2c([nH]c3ccccc23)CN1C(=O)[C@@H]1Cc2c([nH]c3ccccc23)CN1)C(=O)NCc1cn(C2CC(C)(C)N([O])C(C)(C)C2)nn1 | 118.7 s | 36.6% | 120.4 s | 119.3 s | 2.58 mg | 116.4 s | – | – | – | – |
| CC1(C)CC(n2cc(CNC(=O)CNC(=O)[C@@H]3Cc4c([nH]c5ccccc45)CN3C(=O)[C@@H]3Cc4c([nH]c5ccccc45)CN3)nn2)CC(C)(C)N1[O] | 115.8 s | 34.7% | 116.4 s | 114.5 s | 2.65 mg | 117.7 s | – | – | – | – |
| CC1(C)CC(O)CC(C)(C)N1[O] [TEMPOL] | – | – | – | – | – | – | – | – | Active | 25.2 pg/mL |
| CC[C@@H](C)[C@@H](NC(=O)[C@@H]1Cc2c([nH]c3ccccc23)CN1C(=O)[C@@H]1Cc2c([nH]c3ccccc23)CN1)C(=O)NCc1cn(C2CC(C)(C)N([O])C(C)(C)C2)nn1 | 121.7 s | 44.7% | 116.1 s | 117.5 s | 2.25 mg | 119.7 s | – | – | – | – |
| C[C@@H](NC(=O)[C@@H]1Cc2c([nH]c3ccccc23)CN1C(=O)[C@@H]1Cc2c([nH]c3ccccc23)CN1)C(=O)NCc1cn(C2CC(C)(C)N([O])C(C)(C)C2)nn1 | 119.8 s | 32.9% | 117.7 s | 115.3 s | 2.73 mg | 119.6 s | – | – | – | – |
| CC1(C)CC(n2cc(CNC(=O)[C@@H](CCC(N)=O)NC(=O)[C@@H]3Cc4c([nH]c5ccccc45)CN3C(=O)[C@@H]3Cc4c([nH]c5ccccc45)CN3)nn2)CC(C)(C)N1[O] | 119.3 s | 47.7% | 120.6 s | 119.6 s | 2.13 mg | 117.4 s | – | – | – | – |
| CC1(C)CC(n2cc(CNC(=O)[C@@H](Cc3c[nH]cn3)NC(=O)[C@@H]3Cc4c([nH]c5ccccc45)CN3C(=O)[C@@H]3Cc4c([nH]c5ccccc45)CN3)nn2)CC(C)(C)N1[O] | 118 s | 48.6% | 119.5 s | 120.5 s | 2.09 mg | 119 s | – | – | – | – |
| CC1(C)CC(n2cc(CNC(=O)[C@H]3CCCN3C(=O)[C@@H]3Cc4c([nH]c5ccccc45)CN3C(=O)[C@@H]3Cc4c([nH]c5ccccc45)CN3)nn2)CC(C)(C)N1[O] | 119.7 s | 43.2% | 121.4 s | 119.5 s | 2.31 mg | 119.9 s | – | – | – | – |
| CC1(C)CC(n2cc(CNC(=O)[C@@H](Cc3ccccc3)NC(=O)[C@@H]3Cc4c([nH]c5ccccc45)CN3C(=O)[C@@H]3Cc4c([nH]c5ccccc45)CN3)nn2)CC(C)(C)N1[O] | 119 s | 45.9% | 117.6 s | 119.1 s | 2.2 mg | 119.4 s | – | – | – | – |
| C[C@@H](O)[C@@H](NC(=O)[C@@H]1Cc2c([nH]c3ccccc23)CN1C(=O)[C@@H]1Cc2c([nH]c3ccccc23)CN1)C(=O)NCc1cn(C2CC(C)(C)N([O])C(C)(C)C2)nn1 | 117.4 s | 47.2% | 118.5 s | 117.3 s | 2.15 mg | 116.9 s | – | – | – | – |
| CC1(C)CC(n2cc(CNC(=O)[C@@H](CO)NC(=O)[C@@H]3Cc4c([nH]c5ccccc45)CN3C(=O)[C@@H]3Cc4c([nH]c5ccccc45)CN3)nn2)CC(C)(C)N1[O] | 118.6 s | 40.5% | 122.5 s | 119.7 s | 2.42 mg | 121.1 s | – | – | – | – |
| CC(C)C[C@@H](NC(=O)[C@@H]1Cc2c([nH]c3ccccc23)CN1C(=O)[C@@H]1Cc2c([nH]c3ccccc23)CN1)C(=O)NCc1cn(C2CC(C)(C)N([O])C(C)(C)C2)nn1 | 119.1 s | 47% | 119.8 s | 120.7 s | 2.16 mg | 121 s | – | – | – | – |
| CC1(C)CC(n2cc(CNC(=O)[C@@H](Cc3c[nH]c4ccccc34)NC(=O)[C@@H]3Cc4c([nH]c5ccccc45)CN3C(=O)[C@@H]3Cc4c([nH]c5ccccc45)CN3)nn2)CC(C)(C)N1[O] | 117.3 s | 50.4% | 121.8 s | 120.3 s | 2.02 mg | 119.4 s | – | – | – | – |
| CC1(C)CC(n2cc(CNC(=O)[C@@H](CCCNC(=N)N([N+](=O)[O-])[N+](=O)[O-])NC(=O)[C@@H]3Cc4c([nH]c5ccccc45)CN3C(=O)[C@@H]3Cc4c([nH]c5ccccc45)CN3)nn2)CC(C)(C)N1[O] | 119.7 s | 63.1% | 119.8 s | 120.2 s | 1.5 mg | 121.8 s | Active | Dose-dependent effect | – | – |
| CC1(C)CC(n2cc(CNC(=O)[C@@H](CCCCN)NC(=O)[C@@H]3Cc4c([nH]c5ccccc45)CN3C(=O)[C@@H]3Cc4c([nH]c5ccccc45)CN3)nn2)CC(C)(C)N1[O] | 118.5 s | 57% | 120.5 s | 119.8 s | 1.75 mg | 121.4 s | Active | Dose-dependent effect | – | – |
| CC1(C)CC(n2cc(CNC(=O)[C@@H](Cc3ccc(O)cc3)NC(=O)[C@@H]3Cc4c([nH]c5ccccc45)CN3C(=O)[C@@H]3Cc4c([nH]c5ccccc45)CN3)nn2)CC(C)(C)N1[O] | 118.6 s | 60% | 117.5 s | 118 s | 1.63 mg | 117.2 s | Active | Dose-dependent effect | – | – |
